Data published in the supplement of paper PMC10307832.

Tests used:
Assay in all cases: relative viability (nuclei count vs DMSO), 5 days (fraction); higher = more cells survive
Metformin + Bortezomib = compound: CN(C)C(=N)NC(=N)N [Metformin] + CC(C)C[C@H](NC(=O)[C@H](Cc1ccccc1)NC(=O)c1cnccn1)B(O)O [Bortezomib] (partner 0.002 µM)
Method in brief: (§1)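 Relative viability divides the nuclei count in treated wells by that in vehicle wells. Lung cancer cell lines were seeded in 1536-well plates, dosed by pin tool the next day, and fixed and stained after 5 days in one step with final 0.05% Triton X-100, 1% formaldehyde and 1 ug/ml Hoechst. Dosing was a single drug or a fixed anchor-drug dose plus five library-drug doses (not always all listed) in √10 steps, and values are medians of duplicate plates imaged at 4×.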

Metformin + Vorinostat = compound: CN(C)C(=N)NC(=N)N [Metformin] + O=C(CCCCCCC(=O)Nc1ccccc1)NO [Vorinostat] (partner 1 µM)
Method in brief: as §1

Apatinib + AZD7762 = compound: N#CC1(c2ccc(NC(=O)c3cccnc3NCc3ccncc3)cc2)CCCC1 [Apatinib] + NC(=O)Nc1cc(-c2cccc(F)c2)sc1C(=O)N[C@H]1CCCNC1 [AZD7762] (partner 0.2 µM)
Method in brief: as §1

Apatinib + Phenformin = compound: N#CC1(c2ccc(NC(=O)c3cccnc3NCc3ccncc3)cc2)CCCC1 [Apatinib] + N=C(N)NC(=N)NCCc1ccccc1 [Phenformin] (partner 250 µM)
Method in brief: as §1

| Cell Line | relative viability (Metformin + Bortezomib; first compound 10 µM) | relative viability (Metformin + Bortezomib; first compound 31.62 µM) | relative viability (Metformin + Bortezomib; first compound 100 µM) | relative viability (Metformin + Bortezomib; first compound 316.23 µM) | relative viability (Metformin + Bortezomib; first compound 1000 µM) | relative viability (Metformin + Vorinostat; first compound 10 µM) | relative viability (Metformin + Vorinostat; first compound 31.62 µM) | relative viability (Metformin + Vorinostat; first compound 100 µM) | relative viability (Metformin + Vorinostat; first compound 316.23 µM) | relative viability (Metformin + Vorinostat; first compound 1000 µM) | relative viability (Apatinib + AZD7762; first compound 0.08 µM) | relative viability (Apatinib + AZD7762; first compound 0.253 µM) | relative viability (Apatinib + AZD7762; first compound 0.8 µM) | relative viability (Apatinib + AZD7762; first compound 2.53 µM) | relative viability (Apatinib + AZD7762; first compound 8 µM) | relative viability (Apatinib + Phenformin; first compound 0.08 µM) | relative viability (Apatinib + Phenformin; first compound 0.253 µM) | relative viability (Apatinib + Phenformin; first compound 0.8 µM) | relative viability (Apatinib + Phenformin; first compound 2.53 µM) | relative viability (Apatinib + Phenformin; first compound 8 µM) |
| --- | --- | --- | --- | --- | --- | --- | --- | --- | --- | --- | --- | --- | --- | --- | --- | --- | --- | --- | --- | --- |
| A-427 | 0.997 | 1 | 0.94 | 0.963 | 0.901 | 0.848 | 0.863 | 0.827 | 0.819 | 0.776 | 0.71 | 0.761 | 0.665 | 0.572 | 0.527 | 0.393 | 0.387 | 0.254 | 0.3 | 0.234 |
| 201T |  | 1.15 | 1.1 | 1.06 | 1.12 |  | 1.02 | 0.972 | 0.98 | 1.03 | 0.691 | 0.701 | 0.565 | 0.5 | 0.471 | 0.481 | 0.448 | 0.413 | 0.33 | 0.405 |
| NCI-H2085 | 1.1 | 1.05 | 1.01 | 1.09 | 1.16 | 0.733 | 0.747 | 0.775 | 0.788 | 0.812 | 0.97 | 1 | 0.925 | 0.846 | 0.699 | 0.707 | 0.715 | 0.752 | 0.65 | 0.656 |
| LXF-289 | 0.943 | 0.904 | 0.893 | 0.933 | 1.01 | 0.65 | 0.661 | 0.712 | 0.66 | 0.729 | 1.13 | 1.1 | 1.09 | 1.02 | 1.02 | 0.543 | 0.527 | 0.519 | 0.496 | 0.468 |
| NCI-H1975 | 0.335 | 0.333 | 0.411 | 0.375 | 0.433 | 0.688 | 0.738 | 0.705 | 0.645 | 0.729 |  | 0.754 | 0.71 | 0.514 | 0.655 | 0.425 | 0.387 | 0.382 | 0.389 | 0.433 |
| LU99A | 0.96 | 1.06 | 0.988 | 0.903 | 1.04 | 0.417 | 0.579 | 0.411 | 0.397 | 0.479 | 0.413 | 0.448 | 0.269 | 0.224 | 0.229 | 0.914 | 1.01 | 0.816 | 0.799 | 0.813 |
| HCC-827 |  | 0.952 | 1.12 | 0.919 | 0.925 | 0.483 | 0.84 | 1.02 | 0.776 | 0.943 | 0.166 | 0.213 | 0.165 | 0.141 | 0.158 | 0.4 | 0.406 | 0.212 | 0.382 | 0.351 |
| BEN | 1.08 | 1.18 | 0.775 | 0.993 | 0.511 | 0.56 | 0.728 | 0.64 | 0.494 | 0.625 | 0.529 | 0.67 | 0.694 | 0.449 | 0.621 | 0.26 | 0.255 | 0.25 | 0.232 | 0.25 |
| NCI-H1755 | 0.861 | 0.913 | 0.843 | 0.783 | 0.896 | 0.579 | 0.629 | 0.711 | 0.657 | 0.763 | 0.442 | 0.449 | 0.366 | 0.375 | 0.335 | 0.626 | 0.611 | 0.628 | 0.609 | 0.559 |
| LOU-NH91 | 0.515 | 0.504 | 0.511 | 0.56 | 0.474 | 0.86 | 0.852 | 0.839 | 0.925 | 0.833 | 0.749 | 0.724 | 0.75 | 0.677 | 0.701 | 0.651 | 0.73 | 0.631 | 0.659 | 0.665 |
| LC-2-ad |  | 1.01 | 0.766 | 0.756 | 0.926 |  | 0.64 | 0.657 | 0.596 | 0.803 | 0.86 | 0.892 | 0.779 | 0.825 | 0.799 | 0.539 | 0.579 | 0.517 | 0.539 | 0.582 |
| ChaGo-K-1 | 1.03 | 1.03 | 0.993 | 0.972 | 0.628 | 0.663 | 0.777 | 0.751 | 0.667 | 0.723 | 0.913 | 0.853 | 0.776 | 0.711 | 0.617 | 0.473 | 0.528 | 0.425 | 0.424 | 0.428 |
| NCI-H2126 | 1 | 1.11 | 1.09 | 1.09 | 1.09 | 0.739 | 0.704 | 0.752 | 0.694 | 0.872 | 1.02 | 0.924 | 0.9 | 0.973 | 0.933 | 0.564 | 0.501 | 0.512 | 0.521 | 0.523 |
| HCC-366 | 1.09 | 1.11 | 1.01 | 1.02 | 1.12 | 0.201 | 0.431 | 0.282 | 0.326 | 0.472 | 0.283 | 0.457 | 0.135 | 0.128 | 0.0774 | 0.635 | 0.61 | 0.578 | 0.525 | 0.456 |
| EMC-BAC-2 | 1.09 | 1.11 | 1.04 | 1.11 | 1.09 | 0.474 | 0.417 |  | 0.492 | 0.37 | 1.1 | 1.07 | 1.06 | 0.91 | 0.998 | 0.578 | 0.568 | 0.463 | 0.383 | 0.39 |
| NCI-H647 | 1.19 | 1.15 | 1.18 | 0.921 | 1.17 | 0.705 | 0.5 | 0.64 | 0.56 | 0.588 |  | 0.482 | 0.372 | 0.341 | 0.344 | 0.561 | 0.64 | 0.427 | 0.544 | 0.319 |
| EPLC-272H | 0.837 | 0.91 | 0.907 | 0.909 | 1.22 | 0.529 | 0.352 | 0.383 | 0.4 | 0.579 | 0.334 | 0.24 | 0.206 | 0.174 | 0.17 | 0.325 |  | 0.318 | 0.333 | 0.265 |
